# Values of other authors, collected in patent publication US10871492B2, “Methods for labeling urine in a subject with fluorophores” (UPTRU INC., priority 2015, dated 2020).
# Settings: health care applications, especially fundus angiography
smiles,measurement,value
"O=C([O-])c1ccccc1-c1c2ccc(=O)cc-2oc2cc([O-])ccc12.[Na+].[Na+] [Fluorescein sodium salt, fluorescein sodium salt]",dose generally considered safe,≤ 25 mg/kg of body weight
